In publication PMC4658577 (Frontiers in Plant Science, 2015):

Tests used:
Format in all cases: cell-based
[1] = target: T1, ANO1/CaCC (TMEM16A) (Homo sapiens, UniProt Q5XXA6); experiment: Eact-induced short-circuit current in ANO1-expressing FRT cells, […]
T1 construct: ANO1 cDNA
T1 sequence (Q5XXA6 1-986): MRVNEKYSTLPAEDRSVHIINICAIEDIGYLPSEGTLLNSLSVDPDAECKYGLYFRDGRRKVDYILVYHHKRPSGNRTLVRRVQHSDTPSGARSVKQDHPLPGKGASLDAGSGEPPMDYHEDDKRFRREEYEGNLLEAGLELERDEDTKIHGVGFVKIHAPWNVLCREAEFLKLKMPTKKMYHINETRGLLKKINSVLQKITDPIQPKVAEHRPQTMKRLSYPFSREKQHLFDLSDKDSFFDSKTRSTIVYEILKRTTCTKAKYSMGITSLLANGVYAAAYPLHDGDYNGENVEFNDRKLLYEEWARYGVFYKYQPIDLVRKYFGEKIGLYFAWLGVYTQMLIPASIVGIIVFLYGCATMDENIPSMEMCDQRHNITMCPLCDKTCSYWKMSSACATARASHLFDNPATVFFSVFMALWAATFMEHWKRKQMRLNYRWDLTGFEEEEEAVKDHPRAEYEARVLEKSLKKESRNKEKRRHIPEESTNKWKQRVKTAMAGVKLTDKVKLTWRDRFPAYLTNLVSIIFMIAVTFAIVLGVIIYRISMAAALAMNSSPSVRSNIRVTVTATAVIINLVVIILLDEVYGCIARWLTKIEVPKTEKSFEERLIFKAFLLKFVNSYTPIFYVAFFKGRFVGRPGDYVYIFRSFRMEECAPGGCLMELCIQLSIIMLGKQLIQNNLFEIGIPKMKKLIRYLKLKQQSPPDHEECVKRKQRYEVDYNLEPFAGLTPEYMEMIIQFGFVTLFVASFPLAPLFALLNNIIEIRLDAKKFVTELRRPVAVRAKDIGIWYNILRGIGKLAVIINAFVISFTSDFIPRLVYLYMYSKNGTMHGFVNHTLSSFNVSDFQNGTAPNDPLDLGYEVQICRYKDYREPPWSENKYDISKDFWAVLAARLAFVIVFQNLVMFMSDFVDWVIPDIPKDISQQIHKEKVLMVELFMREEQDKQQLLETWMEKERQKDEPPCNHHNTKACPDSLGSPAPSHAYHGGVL

[2] = target: T2, cystic fibrosis transmembrane conductance regulator (CFTR) (Homo sapiens, UniProt P13569); experiment: gradient concentrations inhibiting lignan-activated CFTR iodide influx in FRT cells
T2 construct: human wild-type CFTR cDNA

[3] = target: T1, ANO1/CaCC (TMEM16A); experiment: Eact-induced short-circuit current in ANO1-expressing FRT cells

T2 sequence (P13569 whole entry): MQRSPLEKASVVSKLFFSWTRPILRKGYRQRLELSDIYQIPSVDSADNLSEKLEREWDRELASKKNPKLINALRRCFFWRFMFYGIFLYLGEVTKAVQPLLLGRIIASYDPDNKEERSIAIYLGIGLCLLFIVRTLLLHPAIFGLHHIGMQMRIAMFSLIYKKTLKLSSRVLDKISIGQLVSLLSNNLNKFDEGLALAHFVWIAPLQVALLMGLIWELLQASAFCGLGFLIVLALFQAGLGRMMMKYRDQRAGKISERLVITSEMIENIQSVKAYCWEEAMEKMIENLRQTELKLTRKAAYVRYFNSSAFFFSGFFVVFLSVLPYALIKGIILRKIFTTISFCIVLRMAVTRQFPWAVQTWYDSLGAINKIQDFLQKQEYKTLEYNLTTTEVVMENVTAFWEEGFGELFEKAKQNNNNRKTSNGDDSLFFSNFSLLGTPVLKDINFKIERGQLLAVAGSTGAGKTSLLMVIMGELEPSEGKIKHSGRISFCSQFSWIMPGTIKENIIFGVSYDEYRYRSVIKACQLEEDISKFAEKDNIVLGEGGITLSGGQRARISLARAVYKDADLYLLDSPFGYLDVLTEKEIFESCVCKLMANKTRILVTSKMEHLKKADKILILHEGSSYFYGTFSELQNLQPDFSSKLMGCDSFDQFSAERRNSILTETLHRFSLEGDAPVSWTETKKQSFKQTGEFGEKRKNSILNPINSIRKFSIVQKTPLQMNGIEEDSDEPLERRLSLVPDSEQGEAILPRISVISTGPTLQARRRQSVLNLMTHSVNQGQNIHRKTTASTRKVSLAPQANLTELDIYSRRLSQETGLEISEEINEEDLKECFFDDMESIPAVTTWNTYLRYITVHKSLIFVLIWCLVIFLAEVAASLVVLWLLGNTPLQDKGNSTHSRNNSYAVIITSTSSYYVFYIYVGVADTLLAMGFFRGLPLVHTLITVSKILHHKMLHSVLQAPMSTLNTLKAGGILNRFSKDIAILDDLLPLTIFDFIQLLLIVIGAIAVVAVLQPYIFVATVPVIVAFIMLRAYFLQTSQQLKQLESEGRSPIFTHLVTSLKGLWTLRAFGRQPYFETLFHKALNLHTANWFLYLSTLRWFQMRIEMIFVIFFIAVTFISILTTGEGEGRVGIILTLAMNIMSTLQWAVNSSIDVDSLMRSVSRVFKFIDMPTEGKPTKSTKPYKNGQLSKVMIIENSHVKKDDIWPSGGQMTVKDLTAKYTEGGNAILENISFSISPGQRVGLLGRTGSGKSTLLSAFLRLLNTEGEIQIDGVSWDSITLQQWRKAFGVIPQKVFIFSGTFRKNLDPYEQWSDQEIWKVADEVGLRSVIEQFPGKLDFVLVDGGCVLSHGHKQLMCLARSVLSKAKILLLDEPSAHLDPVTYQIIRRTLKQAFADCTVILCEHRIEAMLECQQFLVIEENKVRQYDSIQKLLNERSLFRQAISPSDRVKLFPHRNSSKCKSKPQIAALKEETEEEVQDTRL

Compound: CCc1c(C)nc(SCC(=O)Nc2nc(-c3ccc(OC)cc3)cs2)[nH]c1=O [16A, T16Ainh-A01]
- Eact-induced short-circuit current in ANO1-expressing FRT cells, 30 μM [1]: Eact-induced ANO1-mediated short-circuit current was completely abolished by the specific inhibitor of ANO1 T16Ainh-A01

Compound: O=C(O)c1ccc(/C=C2\SC(=S)N(c3cccc(C(F)(F)F)c3)C2=O)cc1 [compound 172, CFTRinh-172]
- gradient concentrations inhibiting lignan-activated CFTR iodide influx in FRT ce [2]: activation effect of these compounds could be inhibited by gradient concentrations of the known CFTR inhibitor CFTRinh-172

Compound: COc1ccc([C@H]2OC[C@H]3[C@@H]2CO[C@@H]3c2ccc(OC)c(OC)c2)cc1OC [eudesmin]
- IC50 [3]: 200 µM
